This assay deals with lipid membranes on porous silica beads packed in microcolumn. Put plainly: Microfluidic study: release of dye from a bead packed microcolumn after TRITON X-100 injection. The format is biochemical. Particulars: 10 μL of 10% TRITON X-100 injected, 5 min no flow. How it is done: To create a packed microcolumn of lipid coated beads containing fluorescein, 2 μL of silica bead (diameter=20 μm) containing suspension (0.05 mg/μL) was injected into a microfluidic channel by applying vacuum at the outlet port of the microchannel, followed by the injection of 10 μL of fluorescein-entrapped bead (diameter=10 μm) containing suspension (0.05 mg/μL). The bead packed microchannel was mounted onto a vertical translational stage located in the sample holder space of the fluorimeter. Just below the bead segment, the microchannel was irradiated with an Argon ion laser (λ=488 nm, 8-10 mW) excitation. The inlet of the column was connected to a buffer reservoir while the outlet was connected to a vacuum source. As the fluorescence intensity at 520 nm was monitored, several microliters of Tris buffer was passed through the microchannel before the injection of TRITON X-100 detergent. […]
The packed segment was about 2 mm long. The disruption of the membranes on porous silica beads (containing fluorescein dye) by TRITON X-100 detergent was detected by monitoring the release of the dye from the beads, at a point just below the bead segment as indicated in FIG. 7B. […] The microcolumn was irradiated at 488 nm and fluorescence intensity was monitored at 520 nm. […]

The text below walks through data of patent publication US8465983B1, “Detection and delivery systems utilizing supported lipid bilayers” (priority 2005, dated 2013).

With TRITON X-100, the “initial signal (1st peak) less than that observed in suspension studies” value is listed as around 80%.
